Test system: NF-κB
Assay: NF-κB-dependent luciferase reporter gene assay in UV-C exposed HeLa cells
Type: cell-based, human
Procedure: HeLa cells were transfected with a NF-κB-dependent reporter gene and exposed to UV-C 24 hours after transfection. Pretreatment with Astaxanthin was done 3 hours prior to irradiation, where indicated. Cells were harvested and luciferase activity was measured 14-18 hours following exposure. The ratio between Firefly and Renilla luciferase activity is represented as fold activation over the activity in unstimulated control cells. The standard error is based on two identical experiments.
The human […] cell line Hela Tet/off was cultured in MEM alpha medium supplemented with 10% fetal calf serum, penicillin and streptomycin (Gibco Grand Island, N.Y.). The day before transfection, cells were plated on 6 cm dishes in a medium containing 2.5% fetal calf serum. On the day of transfection, the cell culture medium was changed to fresh medium (2.5% fetal calf serum).
A stock solution of Astaxanthin was prepared by dissolving synthetic Astaxanthin (Sigma) in 99.6% ethanol. The concentration of Astaxanthin was measured by spectrophotometry, and the absorbance maximum at 474-479 run was used to calculate the concentration, according to the formula: Absmax/210.
The 6XκB-Luc plasmid contains a firefly luciferase reporter gene driven by 6 NF-κB binding sites cloned upstream of a TK promoter (Meyer et al. 1993). […]

## CC1=C(/C=C/C(C)=C/C=C/C(C)=C/C=C/C=C(C)/C=C/C=C(C)/C=C/C2=C(C)C(=O)[C@@H](O)CC2(C)C)C(C)(C)C[C@H](O)C1=O [Astaxanthin]
HeLa cells transfected with NF-κB-dependent reporter gene, UV-C, pretreatment 3 hours prior to irradiation (FIG. 1)
  effect on the activation of NF-κB effected by UV exposure: inhibits the activation of NF-κB effected by UV exposure
HeLa cells, 6xκB-Luc reporter, UV-C 10 J/m^2, Astaxanthin pretreatment 3 hours at the highest concentration, luciferase 14-18 hours after exposure
  repression of UV-C induced activation of NF-κB-dependent reporter gene: ~3 fold

— patent US20030078304A1, “Method of inhibiting the expression of inflammatory cytokines and chemokines” (priority 2000, published 2003)
